“And” between values parts separate entries of the source, which are not always exact repeats. Equal values may be shown once. “Also recorded” adds a separate entry of the source.
How the values were obtained:
NF-κB-p65 = test: Nuclear NF-κB-p65 in perineuronal microglia of the spinal cord; format: in vivo, rat; conditions: post-paralysis treatment for 15 days, 100 mg/kg/day
Description: FIG. 9A: Scheme of the experimental design. SOD1^G93A female rats were treated with 100 mg/kg/day of BANA or vehicle immediately after the first signs of paralysis onset of one hindlimb and continue for 15 days. Immunohistological analysis of the lumbar spinal cord of non-transgenic and vehicle- and BANA-treated SOD1^G93A symptomatic rats were performed.
FIG. 9C: Confocal images show NF-κB-p65 (green) and DAPI (red) expression in the ventral horn of the spinal cord of non-transgenic and symptomatic SOD1^G93A rats, treated with vehicle or BANA, in the surroundings of motor neurons (white dotted lines). Nuclei stained in yellow denote nuclear NF-κB-p65 and DAPI colocalization (white arrows). […] Data are expressed as mean±SEM; data were analyzed by the Kruskal-Wallis test followed by Dunn's multiple comparisons test, **p=0.0018, ***p=0.0003. n=4 animals per condition. Scale bar=20 μm.
At least 4 rats were analyzed for each immunohistochemistry experiment. Three different conditions were studied as follows: 1) non-transgenic (NonTg) rats of 160-180 days; 2) transgenic SOD1^G93A rats of 195-210 days treated with vehicle (paralysis, 15 d-vehicle) and 3) transgenic SOD1^G93A rats of 195-210 days treated with 50 or 100 mg/kg/day of BANA during 15 days. After treatment animals were deeply anesthetized and transcardial perfusion was performed with paraformaldehyde 4% (v/v) in PBS pH=7.4. […]

NF-κB = test: LPS-induced NF-κB activation in NF-κB-RE-Luc reporter mouse; format: in vivo; conditions: intraperitoneal, 2 h before LPS; BANA 10, 20 and 30 mg/kg; BA 30 mg/kg; DMF 30 mg/kg
Description: To determine whether BANA was capable of preventing LPS-induced NF-κB activation, intraperitoneal administration of BANA (10, 20, and 30 mg/kg) were followed by LPS intraperitoneal administration to an NF-κB-reporter transgenic mouse.

inflammasome = test: LPS/ATP-induced inflammasome activation in BV2 cells (western blot of IL-1β); format: cell-based, murine; conditions: treatment in second signal (ATP), compared to vehicle or sodium benzoate
Description: FIG. 3B: For inflammasome activation, BV2 cells were treated with LPS and ATP. BANA or B.A treatment was performed in second signal (ATP). Presence of pro-IL1β in cell lysates (CL) and cleaved IL-1β in supernatants (SN) was determined by western blot analysis. […] All data are expressed as mean±SEM.

[1] = BANA plasma levels by RP-HPLC after oral administration; format: in vivo, SOD1^G93A rats
Description: (§1) Only female transgenic rats showing weakness and gait alterations in the […] as the first clinical sign were selected for BANA treatment studies. Rats were divided randomly into BANA or vehicle-treated groups. BANA was freshly prepared in buffer phosphate (PB), and administrated daily at a dose of 100 mg/kg using a curved stainless steel gavage needle with 3-mm ball tip. Rats were treated from day-1 post-paralysis for 15 days or until end-stage when they were euthanized.
For the detection of BANA in plasma, experiments were performed using RP-HPLC analysis (Agilent 1200 HPLC system). Rats were sacrificed and plasma samples were obtained. 100 μL of plasma was incubated with HgCl2 (20 mM) at 37° C. for 30 minutes and after that extracted with 900 μL of acetonitrile (ACN) and injected into HPLC in a 20-40% gradient of B in 10 minutes. BANA plasma concentration was calculated from a standard curve using Salicylate as an internal standard. (CPAK C-18, […], 150 mm×3.9 mm I.D. column; A phase: H2O 0.1% Formic acid; B phase: ACN 0.1% Formic acid; detection at 300 nm)
Rates were dosed with 100 mg/kg/day of BANA administered orally.

[2] = tested on: murine BV2 microglial cell line; test: Cell viability / toxicity by sulforhodamine B assay; format: cell-based
Description: (§2) The murine BV2 microglial cell line was used to analyze the toxicity and anti-inflammatory effects of BANA. Baseline cell viability was established in murine microglia cell line BV2 by sulforhodamine B assay. Briefly, cells were plated in a 96-multiwell plate and incubated with different concentrations of BANA (5-110 μM) for 24 h. After media removal, cells were washed twice with PBS pH=7.4. Cells were fixed with TCA for 1 hour at 4° C. and then washed five times with distilled water. 50 μL of sulforhodamine B 0.4% m/v in 1% acetic acid was added to each well and incubated 30 minutes at room temperature. After staining, the plate was washed at least five times with 1% acetic acid. Once the plate was dry the protein-bound dye was dissolved in 10 mM Tris and the absorbance at 570 nm was read using a microplate spectrophotometer (FIG. 3A).

[3] = as above; format: cell-based; conditions: mouse, BV2 microglial cells; BV2 cell culture; read-out: LC50
Description: as §2

SOD1^G93A rats = test: Post-paralysis survival trial in SOD1^G93A rats; format: in vivo, rat
Description: as §1
All rats were weighed and evaluated for motor activity daily. Disease onset was determined for each animal when pronounced muscle atrophy accompanied by abnormal gait, typically expressed as subtle limping or dragging of one hind limb. End-stage was defined by a lack of righting reflexes or the inability to reach food and water.
Survival curves were compared by Kaplan-Meier analysis with the Log-rank test using GraphPad Prism 7 software.
To test whether systemic treatment with BANA could prolong the survival of SOD1^G93A rats, a trial was conducted in which rats were orally treated with BANA (100 mg/kg/day) or vehicle, starting immediately after paralysis onset of one hind limb until the end-stage of the disease.

[4] = Electrophilic reactivity: reaction between BANA and β-mercaptoethanol followed by UV-Visible spectra; format: physicochemical; conditions: BANA 30 μM, β-ME 300 μM, phosphate buffer 20 mM pH=7.4, scans each min up to 15 min
Description: Most electrophilic nitroalkene compounds exert their pharmacological activity via a Michael addition reaction with nucleophiles. To study the electrophilic properties of BANA, the reaction between -mercaptoethanol (BME) and BANA was studied spectrophotometrically.
The electrophilic reactivity of BANA compound was determined by analyzing the UV-Visible spectra of the reaction between BANA and β-Mercaptoethanol (β-ME). BANA (30 μM) was incubated with β-ME (300 μM) in Phosphate buffer (20 mM) pH=7.4, and scans were taken each min up to 15 min.

[5] = oral 100 mg/kg/day from paralysis onset until end-stage

## O=C(O)c1ccc(/C=C/[N+](=O)[O-])cc1 [BANA, (E)-4-(2-nitrovinyl) benzoic acid]
NF-κB-p65
  perineuronal microglia bearing NF-κB-p65-positive nuclei: significant reduction
NF-κB
  LPS-induced NF-κB activation in vivo: significantly decreased; also recorded: significantly inhibited
inflammasome
  LPS/ATP-induced inflammasome activation (release of IL-1β adjusted to pro-IL-1β): inhibited
[1]; SOD1^G93A symptomatic rats, 15 days oral daily 100 mg/kg, plasma incubated with HgCl2 (20 mM, 37° C., 30 min), 100 mg/kg
  [BANA] in plasma, sample + HgCl2: 3.69 μm and 3.45 μm and 3.58 μm
[1]; female, SOD1^G93A transgenic, rat, plasma, po, 100 mg/kg, SOD1^G93A symptomatic rats, 15 days oral daily 100 mg/kg, plasma incubated with HgCl2 (20 mM, 37° C., 30 min), read-out: [BANA] in plasma, sample + HgCl2
  concentration at 15 days: 3.29 µM
[1]; rats, 100 mg/kg/day orally, HPLC
  BANA plasma levels reached: 3.49 µM
[1]; rats, oral 100 mg/kg/day for 5 days
  fraction of plasma BANA covalently linked to proteins: more than 90%
[1]; rats, oral administration
  plasma concentration after oral administration (in words): low micromolar concentration
[2]; Mus musculus, BV-2, BV2 cells, BANA 5-110 μM, 24 h, sulforhodamine B
  IC50: 51.7 µM
[2]; low micromolar concentrations
  toxicity to BV2 microglia: devoid of toxicity
[3]
  CC50 at 24 h: 50 µM
SOD1^G93A rats; [5]
  increase probability of survival compared with vehicle-treated rats: 32%
  mean survival time: evidence of a survival benefit
SOD1^G93A rats; oral, starting after disease onset
  post-paralysis survival prolonged respect to vehicle: 32%
[4]
  reaction with β-mercaptoethanol (UV-Visible absorbance): react with 3-ME, resulting in a decreased in absorbance

Reference: patent publication US20260060947A1 (INSTITUT PASTEUR DE MONTEVIDEO, priority 2019, published 2026)
